Where “and” joins values, the source holds several entries; their conditions need not be identical. Equal values may be shown once.
Experiments:
VIP peptides [1] = target: T1, VIP peptides (Homo sapiens, UniProt P01282)
T1 sequence (P01282 whole entry): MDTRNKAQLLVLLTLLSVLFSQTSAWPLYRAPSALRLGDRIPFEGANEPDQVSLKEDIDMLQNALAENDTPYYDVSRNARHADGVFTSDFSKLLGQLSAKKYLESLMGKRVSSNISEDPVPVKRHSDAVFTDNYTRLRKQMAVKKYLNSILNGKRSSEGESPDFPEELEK

VIP peptides [2] = target: T2, VIP peptides (Cavia porcellus, UniProt P04566)
T2 sequence (P04566 whole entry): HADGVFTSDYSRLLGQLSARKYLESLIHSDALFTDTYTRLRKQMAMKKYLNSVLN

VIP peptides [3] = target: T3, VIP peptides (Rattus norvegicus, UniProt P01283)
T3 sequence (P01283 whole entry): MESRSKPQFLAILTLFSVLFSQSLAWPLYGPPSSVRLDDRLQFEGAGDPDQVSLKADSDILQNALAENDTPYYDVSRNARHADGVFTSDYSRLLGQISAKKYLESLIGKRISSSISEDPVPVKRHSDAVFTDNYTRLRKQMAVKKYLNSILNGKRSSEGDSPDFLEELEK

Row | Compound | Ki (VIP peptides [1]) | Ki (VIP peptides [2]) | Ki (VIP peptides [3])
1 | CC[C@H](C)[C@H](NC(=O)[C@H](CO)NC(=O)[C@H](CC(N)=O)NC(=O)[C@H](CC(C)C)NC(=O)[C@H](Cc1ccc(O)cc1)NC(=O)[C@H](CCCCN)NC(=O)[C@H](CCCCN)NC(=O)[C@@H](NC(=O)[C@H](C)NC(=O)[C@H](CCSC)NC(=O)[C@H](CCC(N)=O)NC(=O)[C@H](CCCCN)NC(=O)[C@H](CCCN=C(N)N)NC(=O)[C@H](CC(C)C)NC(=O)[C@@H](CCCN=C(N)N)NC(=O)[C@@H](NC(=O)[C@H](Cc1ccc(O)cc1)NC(=O)[C@H](CC(N)=O)NC(=O)[C@H](CC(=O)O)NC(=O)[C@@H](NC(=O)[C@H](Cc1ccccc1)NC(=O)[C@@H](NC(=O)[C@H](C)NC(=O)[C@H](CC(=O)O)NC(=O)[C@H](CO)NC(=O)[C@@H](N)Cc1cnc[nH]1)C(C)C)[C@@H](C)O)[C@@H](C)O)C(C)C)C(=O)N[C@@H](CC(C)C)C(=O)N[C@@H](CC(N)=O)C(N)=O [VIP [D-Arg12]] | 2.2 nM and 18.2 nM and 14.4 nM | 16.9 nM | 2.8 nM and 11.7 nM and 19.1 nM
2 | H-HSDAVFTDNYTALRKQMAVKKYLNSILN-NH2 [VIP Ala12] | 53.7 nM and 61.7 nM and 50.1 nM | 56.1 nM | 12.3 nM and 34.7 nM and 30 nM
3 | CC[C@H](C)[C@H](NC(=O)[C@H](CO)NC(=O)[C@H](CC(N)=O)NC(=O)[C@H](CC(C)C)NC(=O)[C@H](Cc1ccc(O)cc1)NC(=O)[C@H](CCCCN)NC(=O)[C@H](CCCCN)NC(=O)[C@H](NC(=O)[C@H](C)NC(=O)[C@H](CCSC)NC(=O)[C@H](CCC(N)=O)NC(=O)[C@H](CCCCN)NC(=O)[C@H](CCCN=C(N)N)NC(=O)[C@H](CC(C)C)NC(=O)[C@H](CCCN=C(N)N)NC(=O)[C@@H](NC(=O)[C@H](Cc1ccc(O)cc1)NC(=O)[C@H](CC(N)=O)NC(=O)[C@H](CC(=O)O)NC(=O)[C@@H](NC(=O)[C@H](Cc1ccccc1)NC(=O)[C@@H](NC(=O)[C@H](C)NC(=O)[C@H](CC(=O)O)NC(=O)[C@H](CO)NC(=O)[C@@H](N)Cc1cnc[nH]1)C(C)C)[C@@H](C)O)[C@@H](C)O)C(C)C)C(=O)N[C@@H](CC(C)C)C(=O)N[C@@H](CC(N)=O)C(N)=O [VIP [D-Val19]] | 10.9 nM and 69.2 nM and 58.9 nM | 34.6 nM | 6.3 nM and 29.5 nM and 25.1 nM
4 | H-HSAAVFTDNYTRLRKQMAVKKYLNSILN-NH2 [VIP Ala3] | 74.1 nM and 182 nM and 123 nM | 427 nM | 43.7 nM and 245 nM and 148 nM
5 | CC[C@H](C)[C@H](NC(=O)[C@H](CO)NC(=O)[C@H](CC(N)=O)NC(=O)[C@H](CC(C)C)NC(=O)[C@H](Cc1ccc(O)cc1)NC(=O)[C@H](CCCCN)NC(=O)[C@H](CCCCN)NC(=O)[C@@H](NC(=O)[C@H](C)NC(=O)[C@H](CCSC)NC(=O)[C@@H](CCC(N)=O)NC(=O)[C@H](CCCCN)NC(=O)[C@H](CCCN=C(N)N)NC(=O)[C@H](CC(C)C)NC(=O)[C@H](CCCN=C(N)N)NC(=O)[C@@H](NC(=O)[C@H](Cc1ccc(O)cc1)NC(=O)[C@H](CC(N)=O)NC(=O)[C@H](CC(=O)O)NC(=O)[C@@H](NC(=O)[C@H](Cc1ccccc1)NC(=O)[C@@H](NC(=O)[C@H](C)NC(=O)[C@H](CC(=O)O)NC(=O)[C@H](CO)NC(=O)[C@@H](N)Cc1cnc[nH]1)C(C)C)[C@@H](C)O)[C@@H](C)O)C(C)C)C(=O)N[C@@H](CC(C)C)C(=O)N[C@@H](CC(N)=O)C(N)=O [VIP [D-Gln16]] | 1.1 nM and 2.9 nM and 3.5 nM | 11.5 nM | 1 nM and 5.6 nM and 9.3 nM
6 | H-HSDAVFTDNYTRLRKQAAVKKYLNSILN-NH2 [VIP Ala17] | 0.74 nM and 4.5 nM and 3.9 nM | 4 nM | 1.6 nM and 5 nM and 3.6 nM
7 | H-HSDAVFTDAYTRLRKQMAVKKYLNSILN-NH2 [VIP Ala9] | 0.29 nM and 1.8 nM and 1.4 nM | 1.6 nM | 0.16 nM and 1.3 nM and 0.49 nM
8 | H-HSDAVFTDNYTRLRKQMAVKKYANSILN-NH2 [VIP Ala23] | 26.9 nM and 170 nM and 155 nM | 182 nM | 33.9 nM and 213 nM and 204 nM
9 | H-HSDAVFTDNYTRLRKQMAAKKYLNSILN-NH2 [VIP Ala19] | 0.59 nM and 4.1 nM and 2.1 nM | 3.2 nM | 0.85 nM and 2.8 nM and 2.2 nM
10 | H-HSDAVFTDNYTRLRKQMAVKKYLNSIAN-NH2 [VIP Ala27] | 0.37 nM and 2.3 nM and 2.5 nM | 2.4 nM | 0.59 nM and 4.7 nM and 2 nM
11 | H-HSDAVFTDNYTRLRKQMAVKKALNSILN-NH2 [VIP Ala22] | 3.8 nM and 7.6 nM and 7.1 nM | 8.5 nM | 1.1 nM and 3.2 nM and 2.8 nM
12 | H-HSDAVFTDNYTRLAKQMAVKKYLNSILN-NH2 [VIP Ala14] | 24.6 nM and 174 nM and 111 nM | 61.6 nM | 30 nM and 45.7 nM and 51.3 nM
13 | CC[C@H](C)[C@H](NC(=O)[C@H](CO)NC(=O)[C@H](CC(N)=O)NC(=O)[C@H](CC(C)C)NC(=O)[C@H](Cc1ccc(O)cc1)NC(=O)[C@H](CCCCN)NC(=O)[C@H](CCCCN)NC(=O)[C@@H](NC(=O)[C@H](C)NC(=O)[C@H](CCSC)NC(=O)[C@H](CCC(N)=O)NC(=O)[C@H](CCCCN)NC(=O)[C@H](CCCN=C(N)N)NC(=O)[C@H](CC(C)C)NC(=O)[C@H](CCCN=C(N)N)NC(=O)[C@@H](NC(=O)[C@H](Cc1ccc(O)cc1)NC(=O)[C@H](CC(N)=O)NC(=O)[C@H](CC(=O)O)NC(=O)[C@H](C)NC(=O)[C@H](Cc1ccccc1)NC(=O)[C@@H](NC(=O)[C@H](C)NC(=O)[C@H](CC(=O)O)NC(=O)[C@H](CO)NC(=O)[C@@H](N)Cc1cnc[nH]1)C(C)C)[C@@H](C)O)C(C)C)C(=O)N[C@@H](CC(C)C)C(=O)N[C@@H](CC(N)=O)C(N)=O [VIP Ala7] | 17.8 nM and 51.3 nM and 35.7 nM | 66.1 nM | 16.2 nM and 107 nM and 53.7 nM
14 | CC[C@H](C)[C@H](NC(=O)[C@H](CO)NC(=O)[C@H](CC(N)=O)NC(=O)[C@H](CC(C)C)NC(=O)[C@H](Cc1ccc(O)cc1)NC(=O)[C@H](CCCCN)NC(=O)[C@H](CCCCN)NC(=O)[C@@H](NC(=O)[C@H](C)NC(=O)[C@H](CCSC)NC(=O)[C@H](CCC(N)=O)NC(=O)[C@H](CCCCN)NC(=O)[C@H](CCCN=C(N)N)NC(=O)[C@H](CC(C)C)NC(=O)[C@H](CCCN=C(N)N)NC(=O)[C@@H](NC(=O)[C@H](Cc1ccc(O)cc1)NC(=O)[C@H](CC(N)=O)NC(=O)[C@H](CC(=O)O)NC(=O)[C@H](NC(=O)[C@H](Cc1ccccc1)NC(=O)[C@@H](NC(=O)[C@H](C)NC(=O)[C@H](CC(=O)O)NC(=O)[C@H](CO)NC(=O)[C@@H](N)Cc1cnc[nH]1)C(C)C)[C@H](C)O)[C@@H](C)O)C(C)C)C(=O)N[C@@H](CC(C)C)C(=O)N[C@@H](CC(N)=O)C(N)=O [VIP [D-Thr7]] | 162 nM and 288 nM and 214 nM | 200 nM | 87.1 nM and 324 nM and 437 nM
15 | H-HSDAVATDNYTRLRKQMAVKKYLNSILN-NH2 [VIP Ala16] | 724 nM and 1150 nM and 794 nM | 2750 nM | 661 nM and 1860 nM and 2340 nM

Reference: BindingDB's records for doi:10.1124/jpet.301.1.37 (National Institutes of Health, 2002)
